Experimental data: US8871753B2, “Macrocyclic compounds and their use as kinase inhibitors” (Incyte Corporation, priority 2008, dated 2014)
Structures can show the parent of a compound that is named as a salt. Where two headings read alike, the source gives them in different places.

Columns and labels:
Assay type in all cases: biochemical
[1] = target: T1, human JAK3 (a.a. 781-1124) (Homo sapiens, UniProt P52333); assay: In vitro JAK kinase assay (HTRF, phosphorylation of a biotinylated peptide), JAK3
T1 construct: JAK3 (a.a. 781-1124); His tag (N); made in house; host or cells: insect cells (baculovirus)
T1 sequence (P52333 781-1124): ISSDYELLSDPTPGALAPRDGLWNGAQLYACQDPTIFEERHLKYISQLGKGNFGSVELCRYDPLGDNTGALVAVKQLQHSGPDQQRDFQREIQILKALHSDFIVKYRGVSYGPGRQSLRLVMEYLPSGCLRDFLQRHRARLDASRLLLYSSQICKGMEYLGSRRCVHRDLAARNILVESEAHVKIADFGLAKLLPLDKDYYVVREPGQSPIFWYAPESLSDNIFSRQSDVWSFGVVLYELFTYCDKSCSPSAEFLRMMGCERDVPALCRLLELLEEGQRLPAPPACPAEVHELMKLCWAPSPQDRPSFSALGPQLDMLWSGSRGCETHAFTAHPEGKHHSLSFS
Summary of the method: (§1)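 Phosphorylation of a biotinylated peptide by the JAK kinase domain, detected by HTRF with Eu-Py20 and SA-APC. ATP was 90 μM for JAK1, 30 μM for JAK2 and 3 μM for JAK3. Reactions ran 1 h at room temperature and were stopped with EDTA, followed by 40 min antibody binding.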

[2] = target: T2, Recombinant Human Anaplastic Lymphoma Kinase (Homo sapiens, UniProt Q9UM73); assay: ALK HTRF kinase assay; details: for IC50: Table B1, cells without percent sign
T2 construct: purchased Invitrogen, Carlsbad, Calif
T2 sequence (Q9UM73 19-1620): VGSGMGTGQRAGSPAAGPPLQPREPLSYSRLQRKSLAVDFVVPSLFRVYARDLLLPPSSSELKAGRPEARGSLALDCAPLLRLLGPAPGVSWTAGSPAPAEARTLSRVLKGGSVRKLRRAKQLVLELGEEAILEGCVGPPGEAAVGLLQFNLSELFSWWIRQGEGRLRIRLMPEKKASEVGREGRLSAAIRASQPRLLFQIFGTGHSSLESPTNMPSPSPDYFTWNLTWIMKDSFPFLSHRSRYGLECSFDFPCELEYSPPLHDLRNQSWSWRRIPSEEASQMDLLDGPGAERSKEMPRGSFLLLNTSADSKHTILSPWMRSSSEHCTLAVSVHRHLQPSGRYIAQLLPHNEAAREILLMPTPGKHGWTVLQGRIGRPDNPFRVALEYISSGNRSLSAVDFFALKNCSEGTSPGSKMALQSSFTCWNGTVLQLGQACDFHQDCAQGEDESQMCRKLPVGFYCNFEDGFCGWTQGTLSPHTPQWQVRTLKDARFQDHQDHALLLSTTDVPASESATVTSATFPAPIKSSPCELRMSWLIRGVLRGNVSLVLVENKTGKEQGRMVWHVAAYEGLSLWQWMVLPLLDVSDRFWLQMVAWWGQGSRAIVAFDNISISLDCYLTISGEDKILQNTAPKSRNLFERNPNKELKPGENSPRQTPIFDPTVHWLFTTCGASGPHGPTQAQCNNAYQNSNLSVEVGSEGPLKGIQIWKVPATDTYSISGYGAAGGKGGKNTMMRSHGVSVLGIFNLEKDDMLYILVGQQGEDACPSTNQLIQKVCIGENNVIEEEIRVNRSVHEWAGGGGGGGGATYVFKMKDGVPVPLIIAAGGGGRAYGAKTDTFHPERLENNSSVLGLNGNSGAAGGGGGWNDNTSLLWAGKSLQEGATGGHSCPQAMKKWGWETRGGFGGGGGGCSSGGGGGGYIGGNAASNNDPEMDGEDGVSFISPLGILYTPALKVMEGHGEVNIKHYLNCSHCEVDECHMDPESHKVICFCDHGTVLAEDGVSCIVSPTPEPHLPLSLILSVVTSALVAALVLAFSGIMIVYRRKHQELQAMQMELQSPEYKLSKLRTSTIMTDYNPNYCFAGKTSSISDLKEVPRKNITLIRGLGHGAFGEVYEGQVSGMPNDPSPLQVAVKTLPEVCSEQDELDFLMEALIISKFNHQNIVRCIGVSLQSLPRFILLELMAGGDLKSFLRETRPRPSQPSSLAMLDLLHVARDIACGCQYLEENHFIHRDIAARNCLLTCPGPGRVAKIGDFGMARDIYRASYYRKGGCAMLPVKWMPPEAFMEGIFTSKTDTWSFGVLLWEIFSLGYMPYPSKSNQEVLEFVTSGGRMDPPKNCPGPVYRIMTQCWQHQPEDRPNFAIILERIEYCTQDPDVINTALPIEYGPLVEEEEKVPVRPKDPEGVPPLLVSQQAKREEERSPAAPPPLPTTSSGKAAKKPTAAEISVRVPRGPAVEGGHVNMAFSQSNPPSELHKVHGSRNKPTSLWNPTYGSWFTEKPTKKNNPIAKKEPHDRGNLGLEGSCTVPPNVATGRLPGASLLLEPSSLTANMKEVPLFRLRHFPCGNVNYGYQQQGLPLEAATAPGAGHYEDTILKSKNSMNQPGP
Summary of the method: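 Compounds were incubated with recombinant human ALK and a biotin-tagged peptide substrate. Product was captured with streptavidin-APC and probed with a europium anti-phosphotyrosine antibody, and plates were read for time-resolved fluorescence. Dose-response data were fitted to derive IC50.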

[3] = target: TYK2 (Homo sapiens, UniProt P29597); assay: TYK2 kinase inhibition (Table A1)
Chain of TYK2 (P29597 whole entry): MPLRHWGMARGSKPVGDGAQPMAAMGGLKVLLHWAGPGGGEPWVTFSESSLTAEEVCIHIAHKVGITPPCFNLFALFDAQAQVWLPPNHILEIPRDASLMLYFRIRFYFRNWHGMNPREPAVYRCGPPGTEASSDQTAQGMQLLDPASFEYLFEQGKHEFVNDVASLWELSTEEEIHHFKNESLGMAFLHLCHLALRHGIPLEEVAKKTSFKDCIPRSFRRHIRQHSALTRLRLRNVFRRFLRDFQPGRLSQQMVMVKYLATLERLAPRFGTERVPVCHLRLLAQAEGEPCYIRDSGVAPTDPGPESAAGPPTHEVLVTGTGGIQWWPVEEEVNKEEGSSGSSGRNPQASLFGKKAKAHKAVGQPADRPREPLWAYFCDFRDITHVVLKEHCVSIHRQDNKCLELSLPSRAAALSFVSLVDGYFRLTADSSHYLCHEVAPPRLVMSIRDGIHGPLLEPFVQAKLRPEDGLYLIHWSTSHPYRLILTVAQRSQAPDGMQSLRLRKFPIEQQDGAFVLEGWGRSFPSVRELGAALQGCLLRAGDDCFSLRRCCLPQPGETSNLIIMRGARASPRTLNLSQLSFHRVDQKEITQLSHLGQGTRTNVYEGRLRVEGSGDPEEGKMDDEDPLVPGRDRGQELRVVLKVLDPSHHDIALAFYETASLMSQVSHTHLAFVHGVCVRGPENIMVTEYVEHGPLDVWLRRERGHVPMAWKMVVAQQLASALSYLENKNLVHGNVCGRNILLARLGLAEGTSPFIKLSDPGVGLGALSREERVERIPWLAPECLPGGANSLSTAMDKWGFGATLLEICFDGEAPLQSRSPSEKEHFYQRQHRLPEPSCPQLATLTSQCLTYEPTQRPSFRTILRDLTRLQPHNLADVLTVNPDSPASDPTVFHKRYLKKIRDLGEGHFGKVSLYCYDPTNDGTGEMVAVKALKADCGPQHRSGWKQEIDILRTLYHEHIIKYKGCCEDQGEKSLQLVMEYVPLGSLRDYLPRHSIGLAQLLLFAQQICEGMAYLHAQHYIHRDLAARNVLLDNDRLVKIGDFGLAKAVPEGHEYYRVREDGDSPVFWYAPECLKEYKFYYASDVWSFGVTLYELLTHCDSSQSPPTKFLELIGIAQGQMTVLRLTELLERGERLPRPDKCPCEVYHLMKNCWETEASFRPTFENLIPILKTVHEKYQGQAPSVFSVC

[4] = target: T3, human JAK1 (a.a. 837-1142) (Homo sapiens, UniProt P23458); assay: In vitro JAK kinase assay (HTRF, phosphorylation of a biotinylated peptide), JAK1; details: read-out: JAK1 IC50
T3 construct: human JAK1 (a.a. 837-1142); His tag (N); made in house; host or cells: insect cells (baculovirus)
T3 sequence (P23458 849-1154): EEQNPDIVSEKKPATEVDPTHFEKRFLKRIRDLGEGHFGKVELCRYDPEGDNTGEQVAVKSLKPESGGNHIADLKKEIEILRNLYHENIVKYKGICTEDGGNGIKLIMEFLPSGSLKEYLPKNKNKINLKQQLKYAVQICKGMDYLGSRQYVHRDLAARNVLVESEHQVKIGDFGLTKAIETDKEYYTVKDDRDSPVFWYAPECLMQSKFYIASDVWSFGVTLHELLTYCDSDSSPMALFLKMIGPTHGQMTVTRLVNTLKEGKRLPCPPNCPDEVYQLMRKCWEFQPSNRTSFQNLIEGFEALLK
Summary of the method: as §1

[5] = target: T4, human JAK2 (a.a. 828-1132) (Homo sapiens, UniProt O60674); assay: In vitro JAK kinase assay (HTRF, phosphorylation of a biotinylated peptide), JAK2
T4 construct: JAK2 (a.a. 828-1132); His tag (N); made in house; host or cells: insect cells (baculovirus)
T4 sequence (O60674 828-1132): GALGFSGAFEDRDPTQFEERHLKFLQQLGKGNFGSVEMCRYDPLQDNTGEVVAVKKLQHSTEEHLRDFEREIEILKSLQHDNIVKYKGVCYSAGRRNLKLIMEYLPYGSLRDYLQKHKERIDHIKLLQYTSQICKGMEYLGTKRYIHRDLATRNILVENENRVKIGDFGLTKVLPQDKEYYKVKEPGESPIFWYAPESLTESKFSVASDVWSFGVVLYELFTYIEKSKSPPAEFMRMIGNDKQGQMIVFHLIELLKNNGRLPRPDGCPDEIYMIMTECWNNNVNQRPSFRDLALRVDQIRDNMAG
Summary of the method: as §1

[6] = compound at a concentration of 500 nM or 1 mM (not specified), cells shown as percentage
[7] = method AA1 (3 μM ATP) or AA2 (1000 μM ATP), not stated per value
[8] = compound at 500 nM or 1 mM, 90 μM ATP
[9] = method AA1 (90 μM ATP) or AA2 (1000 μM ATP), not stated per value
[10] = method AA1 (30 μM ATP) or AA2 (1000 μM ATP), not stated per value

| SMILES | IC50 ([1]; Table B1) [µM] | IC50 [2] [µM] | IC50 ([3]; Table B1) [µM] | IC50 ([4]; Table B1) [µM] | IC50 ([5]; Table B1) [µM] | ALK % of inhibition at a concentration of 500 nM or 1 mM [2, 6] [%] | IC50 [1, 7] [µM] | ALK % of inhibition at a concentration of 500 nM or 1 mM [2, 8] [%] | IC50 [3] [µM] | IC50 [4, 9] [µM] | IC50 [5, 10] [µM] |
| --- | --- | --- | --- | --- | --- | --- | --- | --- | --- | --- | --- |
| O=C(Nc1ccc2cc1CCc1cccc(c1)Nc1ncc(Cl)c(n1)N2)c1ccc(F)cc1 [Example B49, N-[6-Chloro-2,4,8,22-tetraazatetracyclo[14.3.1.1(3,7).1(9,13)]docosa-1(20), 3(22),4,6,9(21),10,12,16,18-nonaen-12-yl]-4-fluorobenzamide trifluoroacetate] | 0.0036 | 0.08 | 0.0014 | 0.00059 | 0.00054 |  |  |  |  |  |  |
| O=C(Nc1ccc2cc1CCc1cncc(c1)Nc1ncc(Cl)c(n1)N2)N1CCN(c2ccncc2)CC1 [Example B293, N-[6-Chloro-2,4,8,18,22-pentaazatetracyclo[14.3.1.1(3,7).1(9,13)]docosa-1(20),3(22),4,6,9(21),10,12,16,18-nonaen-12-yl]-4-pyridin-4-ylpiperazine-1-carboxamide tetrakis(trifluoroacetate)] | > 0.2 |  | 0.15 | 0.06 | > 0.2 | 45 |  |  |  |  |  |
| Cc1cc(N2CCC(CC(=O)Nc3ccc4cc3CCc3cncc(c3)Nc3ncc(Cl)c(n3)N4)CC2)no1 [Example A247, N-[6-Chloro-2,4,8,18,22-pentaazatetracyclo[14.3.1.1(3,7).1(9,13)]docosa-1(20),3(22),4,6,9(21),10,12,16,18-nonaen-12-yl]-2-[1-(5-methylisoxazol-3-yl)piperidin-4-yl]acetamide bis(trifluoroacetate)] |  |  |  |  |  |  | > 0.2 | 35 | 0.084 | 0.0069 | 0.072 |
| N#Cc1ccc(NC(=O)Nc2ccc3cc2CCc2cccc(c2)Nc2ncc(Cl)c(n2)N3)cc1 [Example B96, N-[6-Chloro-2,4,8,22-tetraazatetracyclo[14.3.1.1(3,7).1(9,13)]docosa-1(20), 3(22),4,6,9(21),10,12,16,18-nonaen-12-yl]-N′-(4-cyanophenyl)urea trifluoroacetate] | 0.045 | > 1 | 0.012 | 0.001 | 0.006 |  |  |  |  |  |  |
| O=C(CC1CCN(C(=O)c2nc[nH]n2)CC1)Nc1ccc2cc1CCc1cncc(c1)Nc1ncc(Cl)c(n1)N2 [Example A136, N-[6-Chloro-2,4,8,18,22-pentaazatetracyclo[14.3.1.1(3,7).1(9,13)]docosa-1(20),3(22),4,6,9(21),10,12,16,18-nonaen-12-yl]-2-[1-(1H-1,2,4-triazol-3-ylcarbonyl)piperidin-4-yl]acetamide bis(trifluoroacetate)] |  |  |  |  |  |  | 0.057 | 38 | 0.0021 | 0.0004 | 0.0024 |
| Clc1cccc(N2CCN(Cc3cc4cc(c3)Nc3nc(ncc3Cl)Nc3cccc(c3)CC4)CC2)n1 [Example B217, 6-Chloro-11-{[4-(6-chloropyridin-2-yl)piperazin-1-yl]methyl}-2,4,8,22-tetraazatetracyclo[14.3.1.1(3,7).1(9,13)]docosa-1(20),3(22),4,6,9(21),10,12,16,18-nonaene tris(trifluoroacetate)] | 0.199 | > 10 | > 1 | 0.225 | 0.071 |  |  |  |  |  |  |
| N#Cc1ccc(C(=O)Nc2ccc3cc2CCc2cccc(c2)Nc2ncc(Cl)c(n2)N3)cc1 [Example B64, N-[6-Chloro-2,4,8,22-tetraazatetracyclo[14.3.1.1(3,7).1(9,13)]docosa-1(20), 3(22),4,6,9(21),10,12,16,18-nonaen-12-yl]-4-cyanobenzamide trifluoroacetate] | 0.01 | 0.15 | 0.0032 | 0.0012 | 0.00073 |  |  |  |  |  |  |
| COc1cccc(NC(=O)Nc2ccc3cc2CCc2cccc(c2)Nc2ncc(Cl)c(n2)N3)c1 [Example B100, N-[6-Chloro-2,4,8,22-tetraazatetracyclo[14.3.1.1(3,7).1(9,13)]docosa-1(20), 3(22),4,6,9(21),10,12,16,18-nonaen-12-yl]-N′-(3-methoxyphenyl)urea trifluoroacetate] | 0.04 |  | 0.0087 | 0.00092 | 0.0047 | 44 |  |  |  |  |  |
